Values joined by “and” are separate entries in the source; they are usually repeats but may differ in a detail not shown here. Identical values can stand only once.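 Tested at 5 concentrations; 48 h exposure; 96-well plates; endpoints linearly interpolated, else capped at highest concentration. GI50 is the concentration that inhibits growth by half. TGI is the concentration that stops growth completely.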
Columns and labels:
Assay in all cases: NCI-60 cell line screen, 48 h
[1] = test system: T-47D breast
[2] = test system: HS 578T breast
[3] = test system: BT-549 breast
[4] = test system: SF-539 CNS
[5] = test system: CAKI-1 renal
[6] = test system: MDA-MB-231 breast
[7] = test system: NCI/ADR-RES ovarian
[8] = test system: DLD-1 colon
[9] = test system: DMS 114 small cell lung
[10] = test system: SNB-78 CNS

SMILES | GI50 [1] | TGI [1] | GI50 [2] | TGI [2] | GI50 [3] | TGI [3] | GI50 [4] | TGI [4] | GI50 [5] | TGI [5] | GI50 [6] | TGI [6] | GI50 [7] | TGI [7] | TGI [8] | TGI [9] | TGI [10]
Oc1ccc(Cl)cc1CNc1nc2ccccc2[nH]1 | 13300 nM | 47.9 µM | 13600 nM | 42.1 µM | 9.05 µM | 23.3 µM | 12.9 µM | 26.8 µM | 11.4 µM | 28.1 µM | 8310 nM | 22.4 µM | 11.5 µM | 37.8 µM |  |  | 
CCOC(=O)c1c(C)c(C)n2c1NC(=O)C2 |  | 70.7 µM |  | 70 µM |  | > 100 µM |  | > 100 µM |  | > 100 µM |  | > 100 µM |  | 81.5 µM | > 100 µM | > 100 µM | 
Cc1cc2c(cc1N)C(C)C1(CCC(=O)N2Cc2ccccc2)OCCO1 (stereo unspecified) |  | > 100 µM |  | > 100 µM |  | > 100 µM |  | > 100 µM |  | > 100 µM |  | > 100 µM |  | > 100 µM |  |  | 
Cc1cc2c(C)n(Cc3ccc(Cl)cc3Cl)nc2c(C(=O)O)c1C |  |  |  |  |  |  |  | > 100 µM |  |  |  |  |  |  | > 100 µM |  | > 100 µM
C=C1c2c(Cl)ccc(O)c2C(O)=C2C(=O)[C@]3(O)C(O)=C(C(N)=O)C(=O)[C@@H](N(C)C)[C@@H]3[C@@H](O)[C@H]12 | 1070 nM | 4.06 µM | 1240 nM | 9.68 µM | 1.07 µM | 3.24 µM | 1.32 µM | 4.61 µM | 0.499 µM | 3.4 µM | 1070 nM | 2.93 µM | 2.43 µM | > 50 µM |  |  | 
CN1CC(=O)N(C)c2nc[nH]c2C1=O |  |  |  |  |  |  |  | > 100 µM |  |  |  |  |  |  | > 100 µM | > 100 µM | > 100 µM
C=CCCCc1ccc(C(O)CCCCCCCCCCCC)o1 (stereo unspecified) | 15100 nM | 34.6 µM | 25500 nM | 55.2 µM | 22.6 µM | 43.3 µM | 22.1 µM | 40.6 µM | 17.4 µM | 33.2 µM | 15600 nM | 29.8 µM | 17.4 µM | 34.2 µM |  |  | 
OCCN1CCN(CC/C=C2\c3ccccc3Sc3ccc(Cl)cc32)CC1 | 2900 nM and 2790 nM | 10.4 µM and 11.5 µM | 2430 nM and 2250 nM | 7.02 µM and 7.94 µM | 7.89 µM | 22.4 µM | 1.61 µM and 2.05 µM | 3.37 µM and 4.37 µM | 2.31 µM and 2.6 µM | 10.4 µM and 8.18 µM | 2620 nM and 2090 nM | 12 µM and 6.46 µM | 10.3 µM and 8.06 µM | 24.8 µM and 21.8 µM |  |  | 
CC(C)CCN[C@@H]1CCc2cc(O)c(N3CC(=O)NS3(=O)=O)c(F)c2C1 | > 100000 nM | > 100 µM | > 100000 nM | > 100 µM | 5.44 µM | > 100 µM | 20.3 µM | > 100 µM | 3.41 µM | > 100 µM | > 100000 nM | > 100 µM | > 100 µM | > 100 µM |  |  | 
O=C(NS(=O)(=O)c1ccccc1)C(Cc1ccccc1)C(Cc1ccccc1)C(=O)NS(=O)(=O)c1ccccc1 (stereo unspecified) |  |  |  |  |  |  |  | > 100 µM |  | > 100 µM |  |  |  |  | > 100 µM | > 100 µM | 
COC1OC2COC(c3ccccc3)OC2C(O)C1Br (stereo unspecified) |  |  |  |  |  |  |  | > 100 µM |  | > 100 µM |  |  |  |  | > 100 µM |  | > 100 µM
